Assay results from patent US20130149757A1 (OPTINOL, INC., priority 2011, published 2013).

Key:
[1] = tested on: strains of C. saccharoperbutylacetonium; conditions: Keis et al, 2001; cited from earlier work
[2] = Liquid-liquid extraction with corn oil (Karr extractor); assay type: physicochemical
Description: Two runs were conducted, each with a different flow rate.

[3] = tested on: C. saccharoperbutylacetonium N1-504; conditions: cited from earlier work
Novel organism = test: Carbohydrate utilization screen; assay type: cell-based, Clostridium beijerinckii sp. optinoii
Description: A full carbohydrate screen was run to test whether the organism is actually N1-504. […] Rather it falls closer to (but is not identical with) C. beijerinckii.

[4] = tested on: C. saccharoperbutylacetonium; conditions: reported (Keis et al.); cited from earlier work
bacterial cells = conditions: cited from earlier work

| Compound | Carbohydrate utilization, strains of C. saccharoperbutylacetonium generally [1] | also measured |
| --- | --- | --- |
| O=C[C@@H](O)[C@H](O)[C@H](O)CO [Arabinose] | will utilize | – |
| O=C[C@H](O)[C@@H](O)[C@H](O[C@@H]1O[C@H](CO)[C@@H](O)[C@H](O)[C@H]1O)[C@H](O)CO [Cellobiose] | will utilize | – |
| CC(C)O [Isopropanol, isopropanol] | – | % extraction, Run 1 ([2]; flow rate feed 26 ml/min): 23.0%; % extraction, Run 2 ([2]; flow rate feed 39 ml/min): 21.5%; extraction in this set up ([2]; summary comment): about 21% |
| OC[C@@H](O)[C@@H](O)[C@H](O)[C@@H](O)CO [Sorbitol] | – | Carbohydrate utilization, C. saccharoperbutylacetonium N1-504 [3]: will not utilize |
| O=C[C@H](O)[C@@H](O)[C@H](O)CO [Xylose] | will utilize | Carbohydrate utilization, Novel organism (Novel organism): does not grow |
| OC[C@@H](O)[C@H](O)[C@H](O)[C@@H](O)CO [dulcitol] | – | Carbohydrate utilization, C. saccharoperbutylacetonium N1-504 [3]: will not utilize |
| O[C@H]1[C@H](O)[C@@H](O)[C@H](O)[C@@H](O)[C@H]1O [inositol] | – | Carbohydrate utilization, C. saccharoperbutylacetonium N1-504 [3]: will not utilize |
| OC[C@H]1O[C@@H](O[C@H]2[C@H](O)[C@@H](O)C(O)O[C@@H]2CO)[C@H](O)[C@@H](O)[C@H]1O (stereo partly drawn) [lactose] | will utilize | – |
| OC[C@H]1O[C@H](O[C@H]2[C@H](O)[C@@H](O)[C@H](O)O[C@@H]2CO)[C@H](O)[C@@H](O)[C@@H]1O [maltose] | will utilize | – |
| CO[C@H]1/C=C/O[C@@]2(C)Oc3c(C)c(O)c4c(O)c(c(/C=N/N5CCN(C)CC5)c(O)c4c3C2=O)NC(=O)/C(C)=C\C=C\[C@H](C)[C@H](O)[C@@H](C)[C@@H](O)[C@@H](C)[C@H](OC(C)=O)[C@@H]1C [rifampin] | – | resistance / inhibition of the organism [4]: resistant |
| OC[C@H]1O[C@@](CO)(O[C@H]2O[C@H](CO)[C@@H](O)[C@H](O)[C@H]2O)[C@@H](O)[C@@H]1O [sucrose] | will utilize | – |
| dextrin | will utilize | – |
| glycogen | will utilize | – |
| inulin | will utilize | – |
| n-butanol | – | inhibits growth (bacterial cells; […] butanol): ~100%; inhibits cell growth and fermentation (bacterial cells; butanol at a concentration of 1 percent): about 20% |
| pectin | will utilize | – |
| starch | will utilize | – |
